{"source": "patent US10844064B2", "about": "“sGC stimulators” (Cyclerion Therapeutics, Inc., priority 2014, dated 2020)", "data": [{"molecular_target": "T1, sGC enzyme (Homo sapiens, UniProt Q02108+Q02153)", "T1 construct": "host or cells: HEK293 expressing GloSensor 40F cGMP", "T1 sequence (Q02108 1-690)": "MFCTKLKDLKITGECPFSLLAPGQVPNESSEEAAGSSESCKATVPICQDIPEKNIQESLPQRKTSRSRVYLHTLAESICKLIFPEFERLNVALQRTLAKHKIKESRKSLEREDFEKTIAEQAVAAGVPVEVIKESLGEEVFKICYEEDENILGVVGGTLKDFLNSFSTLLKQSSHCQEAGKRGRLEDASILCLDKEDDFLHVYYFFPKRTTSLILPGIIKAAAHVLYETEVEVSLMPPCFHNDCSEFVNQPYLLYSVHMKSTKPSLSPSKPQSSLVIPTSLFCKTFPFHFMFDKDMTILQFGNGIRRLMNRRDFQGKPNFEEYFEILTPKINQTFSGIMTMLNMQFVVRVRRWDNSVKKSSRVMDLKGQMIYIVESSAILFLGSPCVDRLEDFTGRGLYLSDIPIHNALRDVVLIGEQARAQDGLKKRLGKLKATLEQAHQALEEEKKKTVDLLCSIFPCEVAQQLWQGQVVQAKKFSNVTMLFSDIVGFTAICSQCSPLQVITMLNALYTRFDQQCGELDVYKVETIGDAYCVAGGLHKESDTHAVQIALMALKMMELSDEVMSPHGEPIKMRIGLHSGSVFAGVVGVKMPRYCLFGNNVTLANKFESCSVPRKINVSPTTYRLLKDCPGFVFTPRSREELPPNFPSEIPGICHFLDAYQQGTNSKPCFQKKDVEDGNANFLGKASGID", "T1 sequence (Q02153 1-619)": "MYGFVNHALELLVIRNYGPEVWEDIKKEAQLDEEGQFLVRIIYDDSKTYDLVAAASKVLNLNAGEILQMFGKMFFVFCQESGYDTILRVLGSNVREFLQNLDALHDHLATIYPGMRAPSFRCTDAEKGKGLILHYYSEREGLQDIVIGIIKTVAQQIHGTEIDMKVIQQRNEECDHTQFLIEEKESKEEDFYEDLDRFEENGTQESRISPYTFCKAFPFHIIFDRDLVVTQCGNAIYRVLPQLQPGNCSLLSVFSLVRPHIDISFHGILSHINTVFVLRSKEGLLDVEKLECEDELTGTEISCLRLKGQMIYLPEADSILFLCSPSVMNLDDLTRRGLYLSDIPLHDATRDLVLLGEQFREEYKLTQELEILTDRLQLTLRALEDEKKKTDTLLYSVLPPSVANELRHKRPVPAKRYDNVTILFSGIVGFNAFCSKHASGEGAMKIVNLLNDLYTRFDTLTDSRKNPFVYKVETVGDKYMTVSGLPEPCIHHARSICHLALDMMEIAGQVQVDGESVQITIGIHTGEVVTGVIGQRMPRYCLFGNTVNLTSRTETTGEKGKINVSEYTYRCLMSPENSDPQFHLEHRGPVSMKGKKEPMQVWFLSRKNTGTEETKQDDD", "assay": "cGMP GloSensor cell-based assay, 384-well format (Example 2B)", "conditions": "HEK293 GloSensor 40F cGMP cells, 10 μM DETA-NONOate; 50% of high control response (Compound Y); read-out: sGC_HEK_GloSensor EC50/IC50 Abs (Norm) (nM) Binned", "procedure": "Data were normalized to a high control using the following equation: 100*(Sample—Low Control)/(High Control—Low Control), where the low control is the average of 16 samples treated with 1% DMSO, and the high control is the average of 16 samples treated with 30 μM of Compound Y depicted below. Data were fit using a 4-parameter fit (log(agonist) vs. response variable slope) using GraphPad Prism Software v.5. n=2 for all compounds. […] Compounds failing to elicit a minimum response of 50% are reported as >30 μM. For compounds run in duplicate or n higher than 2, the result herein given is the geometric mean of the several results obtained.\nHuman embryonic kidney cells (HEK293) cells expressing GloSensor™ 40F cGMP (Part No: CS182801, Promega) were used to evaluate the activity of test compounds. The luminescent biosensors (engineered luciferase) that were incorporated into these cells detect cGMP formed by the compounds stimulating the sGC enzyme and emit luminescence.\ncGMP GloSensor cells were maintained in Dulbecco's Modification of Eagle's Medium (DMEM) supplemented with fetal bovine serum (FBS) (10% final) and hygromycine (200 μg/ml). The day before assay, cells were plated in DMEM with 10% FBS in a 50 μL volume at a density of 1.5×10^4 cells/well in a poly-D-lysine coated 384-well flat white-bottom plate (Corning Cat No 35661). Cells were incubated overnight at 37° C. in a humidified chamber with 5% CO2. The next day, medium was removed and cells were replaced with 40 μl/well of GloSensor™, […] (Promega Cat No E1291). Cells were treated for 90 minutes at 25° C. to allow the substrate to equilibrate in the cells. Test compounds and Diethylenetriamine NONOate (DETA-NONOate) was diluted to […] in serum-free CO2 independent medium and serally diluted at 4× dilutions to create 5× dose curve from which 10 ul was added to the wells (x uM concentration for test compound solution and 10 μM concentration for DETA-NONOate solution; wherein x is one of the following final concentrations).\nFor the kinetics studies, luminescense was measured right away for 0.2 sec per well with Envision (Perkin Elmer model No). For endpoint SAR screening, data were collected after 55 min incubation at room temperature.\nData analysis was carried out as indicated above in Example 2A.", "units": {"EC50": "nM"}, "values": [{"smiles": "COc1c(Br)c(-c2ncc3c(n2)NC(=O)C3(C)C)nn1Cc1ccccc1F", "note": "[Compound I-40]", "EC50": "< 100"}, {"smiles": "Cc1nc(-c2nc(O)c3c(n2)NC(=O)C3(C)C)nn1Cc1ccccc1F", "note": "[Compound I-88]", "EC50": "> 1000"}, {"smiles": "Cc1cn(-c2ncc3c(n2)NC(=O)C3(C)C)nc1Cc1ccccc1F", "note": "[Compound I-85]", "EC50": "100 to 1000"}, {"smiles": "COc1cc(-c2ncc3c(n2)N(C(=O)OC(C)(C)C)C(=O)C3(C)C)nn1Cc1ccccc1", "note": "[Compound I-54, 2-(1-benzyl-5-methoxy-1H-pyrazol-3-yl)-5,5-dimethyl-6-oxo-5H-pyrrolo-[2,3-d]pyrimidine-7(6H)-carboxylate]", "EC50": "100 to 1000"}, {"smiles": "COc1c(C)c(-c2nc(O)c3c(n2)NC(=O)C3(C)C)nn1Cc1ccccc1F", "note": "[Compound I-42]", "EC50": "> 1000"}, {"smiles": "Cn1c(=O)[nH]c2nc(-c3cc(-c4ccon4)n(Cc4ccccc4F)n3)ncc21", "note": "[Compound I-65]", "EC50": "> 30000"}, {"smiles": "CC1(C)C(=O)Nc2nc(-c3cc(C#N)n(Cc4ccccc4F)n3)nnc21", "note": "[Compound I-69]", "EC50": "100 to 1000"}, {"smiles": "CC1(C)C(=O)Nc2nnc(-c3cc(-c4ccon4)n(Cc4ccccc4F)n3)nc21", "note": "[Compound I-68]", "EC50": "> 1000"}, {"smiles": "CCOc1cc(-c2ncc3c(n2)NC(=O)C3(C)C)nn1Cc1ccccc1F", "note": "[Compound I-34]", "EC50": "> 1000"}, {"smiles": "Cc1cn(-c2nc(N)c3c(n2)NC(=O)C3(C)C)nc1Cc1ccccc1F", "note": "[Compound I-84, 4-amino-2-(3-(2-fluorobenzyl)-4-methyl-1H-pyrazol-1-yl)-5,5-dimethyl-5H-pyrrolo[2,3-d]pyrimidin-6(7H)-one]", "EC50": "< 100"}, {"smiles": "COc1cc(-c2ncc3c(n2)NC(=O)C3(C)C)nn1Cc1cccc(F)c1", "note": "[Compound I-55]", "EC50": "< 100"}, {"smiles": "CC1(C)C(=O)Nc2nc(-c3cc(OC(F)F)n(Cc4ccccc4F)n3)ncc21", "note": "[Compound I-31]", "EC50": "100 to 1000"}, {"smiles": "COc1cc(-c2ncc3c(n2)NC(=O)C3(C)C)nn1Cc1ccccc1F", "note": "[Compound I-24]", "EC50": "100 to 1000"}, {"smiles": "CC1(C)C(=O)Nc2nc(-c3ccn(Cc4ccccc4F)n3)ncc21", "note": "[Compound I-74]", "EC50": "100 to 1000"}, {"smiles": "CC(C)Oc1cc(-c2ncc3c(n2)NC(=O)C3(C)C)nn1Cc1ccccc1F", "note": "[Compound I-36]", "EC50": "> 1000"}, {"smiles": "CC(=O)c1cc(-c2ncc3c(n2)NC(=O)C3(C)C)nn1Cc1ccccc1F", "note": "[Compound I-25]", "EC50": "100 to 1000"}, {"smiles": "COc1c(Cl)c(-c2ncc3c(n2)NC(=O)C3(C)C)nn1Cc1ccccc1F", "note": "[Compound I-44]", "EC50": "< 100"}, {"smiles": "COc1cc(-c2ncc3c(n2)NCC3(C)C)nn1Cc1ccccc1F", "note": "[Compound I-27]", "EC50": "100 to 1000"}, {"smiles": "COc1cn(-c2nnc3c(n2)NC(=O)C3(C)C)nc1Cc1ccccc1F", "note": "[Compound I-67]", "EC50": "100 to 1000"}, {"smiles": "CC1(C)C(=O)Nc2nc(-c3ccn(Cc4ccccc4F)n3)nc(N)c21", "note": "[Compound I-73, 4-amino-2-(1-(2-fluorobenzyl)-1H-pyrazol-3-yl)-5,5-dimethyl-5H-pyrrolo[2,3-d]pyrimidin-6(7H)-one]", "EC50": "100 to 1000"}, {"smiles": "Cn1cc(-c2ncc3c(n2)NC(=O)C3(C)C)nc1Cc1ccccc1F", "note": "[Compound I-66]", "EC50": "> 1000"}, {"smiles": "COc1cc(-c2ncc3c(n2)NC(=O)C3(C)C)nn1Cc1ccc(C)cc1F", "note": "[Compound I-63]", "EC50": "< 100"}, {"smiles": "COc1cc(-c2ncc3c(n2)N(CC2CC2)C(=O)C3(C)C)nn1Cc1ccccc1F", "note": "[Compound I-33]", "EC50": "> 1000"}, {"smiles": "COc1cc(-c2ncc3c(n2)NC(=O)C3(C)C)nn1Cc1ccc(F)cc1", "note": "[Compound I-57]", "EC50": "100 to 1000"}, {"smiles": "CC1(C)C(=O)Nc2nc(-c3ccn(Cc4ccccc4F)n3)nc(N3CCOCC3)c21", "note": "[Compound I-76]", "EC50": "100 to 1000"}, {"smiles": "COc1cc(-c2ncc3c(n2)NC(=O)C3(C)C)nn1Cc1ccc(C)cc1", "note": "[Compound I-58]", "EC50": "< 100"}, {"smiles": "COc1c(C)c(-c2ncc3c(n2)NC(=O)C3(C)C)nn1Cc1ccccc1F", "note": "[Compound I-43]", "EC50": "100 to 1000"}, {"smiles": "Cc1nc(-c2ccn(Cc3ccccc3F)n2)nc2c1C(C)(C)C(=O)N2", "note": "[Compound I-77]", "EC50": "> 1000"}, {"smiles": "COc1cc(-c2ncc3c(n2)NC(=O)C3(C)C)nn1Cc1ccccc1", "note": "[Compound I-52]", "EC50": "100 to 1000"}]}]}
